Where a name gives a salt, the structure may show the parent alone.
Columns and labels:
[1] = dissolution of the 11β-aminoester salts in aqueous acid (Table 5 and Examples 101, 225-229); assay type: physicochemical
Description: (§1) A solution of the above free base (492 mg; 1 mmole) in ethanol (10 ml) was treated with a solution (10 ml) of M/10 citric acid in ethanol water (9:1) and the mixture evaporated in vacuo at low temperature to afford a froth.
(§2) Table 5 summarises the properties and preparation of salts of the invention by one of the following methods:
(§3) A. The 11β-aminoester (1 part) was added to a solution of the acid (1 molar part) in water and the mixture stirred or shaken until a clear solution was obtained. The solution was made up with water to the weight indicated, filtered through a membrane and the pH determined.
(§4) B. The 11β-aminoester (1 part) was added to a solution of the acid (1 molar part) in water and the mixture stirred or shaken. As free base remained undissolved, further acid was added and the mixture agitated again. The solution was made up with water to the weight indicated and any material which then remained undissolved was collected in a weighed funnel and the weight of free base dissolved calculated and the pH of the solution measured.
(§5) C. A mixture of the 11β-aminoester (1 part), a 0.1 M solution of the acid (1 molar part) and ethanol was evaporated in vacuo and dried to constant weight. The residue was dissolved in a little water and any material which then remained undissolved collected in a weighed funnel and the weight of free base dissolved calculated. The solution was made up with water to the weight indicated and its pH measured.
(§6) D. The 11β-aminoester (1 part) was added to a solution of the acid (1 molar part) in water and the mixture stirred or shaken. The solution was made up with water to the weight indicated. The material remaining undissolved was collected in a weighed funnel and the weight of free base dissolved calculated and the pH of the solution measured.
(§7) E. As in method C except that further acid was added to the residue after addition of the small amount of water.
The solid citric acid used was as its monohydrate.
(§8) Sodium iodide (0.250 g) and diethylamine (0.5 ml) were added to a solution of 11β-chloroacetoxy-2β-ethoxy-3α-hydroxy-D-homo-5α-pregnan-20-one (0.250 g) in acetone (10 ml) and the mixture was left at room temperature for 3 days during which time a white solid precipated. Water was added and the yellow solution was concentrated in vacuo whereupon crystallisation occurred. The needles were filtered off and washed well with acetone/water yielding the title compound (0.201 g), m.p. 160°-73°, [α]D +60.8°. The above base (0.101 g) was stirred with citric acid monohydrate (0.042 g) in water (9.5 ml) for 21 hours. The solution was made up to 10.1 g by weight. The solid remaining out of solution was filtered off, dried and weighed. The solution was passed through a millipore filter giving an aqueous solution of the title compound, concentration 9.75 mg/ml, pH 3.66.
The above base (0.096 g) was stirred in a solution of citric acid monohydrate (0.038 g) in water (8.5 ml) for 20 hours. A large proportion of the steroid remained out of solution. More citric acid (0.038 g) was added and the mixture stirred for a further 6 hours. The solution was made up to 9.6 g by weight and the solid remaining out of solution was filtered off, dried and weighed. The solution was passed through a millipore filter giving an aqueous solution of the title compound, concentration 9.5 mg/ml, pH 2.85.
To a solution of citric acid monohydrate (52.5 mg) in water (2 ml) was added the above free base (115 mg). More water (8 ml) was added and the mixture was stirred for 72 hrs. A small amount of steroid remained out of solution and more citric acid (52.5 mg) was added. Within 5 mins. a clear solution was obtained which was made up to 11.5 g with water and filtered through a millipore filter yielding an aqueous solution of the title citrate, concentration 10 mg/ml, pH 3.0.
The above free base (112 mg) was added to a solution of citric acid monohydrate (52.5 mg) in water (2 ml). More water (8 ml) was added and the mixture was swirled from time to time. […]

[2] = pH of the salt solutions; assay type: physicochemical
Description: as §1, §2, §3, §4, §5, §6, §7
11β-N,N-Diethylaminoacetoxy-2β-ethoxy-3α-hydroxy-5α-pregnan-20-one (1.45 g) was agitated with citric acid monohydrate (621 mg) in 0.9% w/v sodium chloride solution (steriflex^(R)) (130 ml.) at 20° for 16.5 hours. The resulting solution was stirred at 21° and N/5 sodium hydroxide solution in steriflex^(R) (10.5 ml) was added dropwise during 30 minutes, raising the pH from 3.63 to 4.52. The solution was diluted to 162.5 g so that the concentration of steroid was 9 mg/ml. The solution of the citrate was filtered through a membrane and finally filtered into 8 sterile ampoules.
11β-(N-Butyl-N-ethylaminoacetoxy)-3α-hydroxy-5α-pregnan-20-one (1.80 g) was agitated with citric acid monohydrate (793 mg) in 0.9% w/v sodium chloride solution (steriflex^(R)) (160 ml) at 20° for 19.5 hours. The resulting solution was slightly cloudy. This solution was stirred at 21° and N/5 sodium hydroxide solution in steriflex^(R) (5.8 ml) was added dropwise during 15 minutes, raising the pH from 3.62 to 4.00. The solution was diluted to 201.2 g so that the concentration of steroid was 9 mg/ml. The cloudiness was removed by filtration through a membrane and the clear solution of the citrate was filtered into 8 sterile ampoules.
as §8, with “3.66. […]” for “3.66.”

[3] = method B: further acid added, undissolved material weighed, WT. of solution 10 g, except Ex. 130 and 141: 9.2, 142: 9.23, 143, 144, 189 and 199: 9.8, 149: 10.6, 153: 7.9, 162 and 188: 9.5, 163: 68, 166: 10.4, 168: 10.7, 169: 10.9, 183: 8.05, 184 and 201: 9.83, 185: 7.1, 186: 9.3, 192: 10.07, 193: 6.4, 195: 6.8, 196: 7, 197: 7.2, 200: 10.1, 206: 15 g
[4] = aqueous solution of the salt, Table 5
[5] = method C: ethanol evaporated, residue in water, undissolved material weighed, WT. of solution Ex. 118: 10, 120: 10.4, 148: 9.54, 152: 5.6, 154: 9.1, 155: 8.77, 156: 9.06, 157: 9.5, 158: 9.38, 159: 9.17, 179: 9.65, 180: 11.7, 182: 4.9, 202: 12.05, 213: 12, 214: 11.5, 215: 11.1, 216: 11.6, 217: 12.1 g
[6] = method A: clear solution, 1 molar part acid, made up with water to WT. of solution 10 g, except Ex. 121 and 150: 12, 123: 12.3, 124: 7.5, 129: 10.3, 135 and 139: 8.95, 164: 10.35, 170: 10.4, 181: 10.04, 187: 9.5, 210: 10.2, 221: 15 g
[7] = method D: 1 molar part acid, undissolved material weighed, WT. of solution 10 g, except Ex. 136: 8.95, 140: 9.52, 165 and 167: 10.1, 190 and 198: 9.8, 191: 8.9, 194: 6.6, 204: 10.09, 219: 10.6 g

SMILES	Dissolved aminoester [1, 3] [mg]	pH [2, 4]	also measured
CCCN(CCC)CC(=O)O[C@H]1C[C@]2(C)[C@@H](C(C)=O)CC[C@H]2[C@@H]2CC[C@H]3C[C@H](O)CC[C@]3(C)[C@H]21 [Example 218]	–	–	Dissolved aminoester ([1]; method C, 0.9% w/v saline in place of water, WT. of solution 95 g): 951 mg; pH ([2]; solution of the salt in saline, before any adjustment): 3.38
CCN(CC)CC(=O)O[C@H]1C[C@]2(C)[C@@H](C(C)=O)CC[C@H]2[C@@H]2CC[C@H]3C[C@H](O)[C@@H](Br)C[C@]3(C)[C@H]21 [Example 208]	65	2.6	–
CC(=O)[C@H]1CC[C@H]2[C@@H]3CC[C@H]4C[C@H](O)CC[C@]4(C)[C@H]3[C@@H](OC(=O)CN3CCCC3)C[C@]12C [Example 155]	–	3.45	Dissolved aminoester [1, 5]: 87.7 mg
CC(=O)[C@H]1CC[C@H]2[C@@H]3CC[C@H]4C[C@H](O)CC[C@]4(C)[C@H]3[C@@H](OC(=O)CN3CCCCC3C)C[C@]12C (stereo partly drawn) [Example 148]	–	3.55	Dissolved aminoester [1, 5]: 95.4 mg
CC(=O)[C@H]1CC[C@H]2[C@@H]3CC[C@H]4C[C@H](O)CC[C@]4(C)[C@H]3[C@@H](OC(=O)CNC(C)CCC(C)C)C[C@]12C (stereo partly drawn) [Example 143]	86	2.85	–
CC(=O)[C@H]1CC[C@H]2[C@@H]3CC[C@H]4C[C@H](O)CC[C@]4(C)[C@H]3[C@@H](OC(=O)CN(C)C(C)CCC(C)C)C[C@]12C (stereo partly drawn) [Example 192]	100.7	3.00	–
CCC(C)CN(CC)CC(=O)O[C@H]1C[C@]2(C)[C@@H](C(C)=O)CC[C@H]2[C@@H]2CC[C@H]3C[C@H](O)CC[C@]3(C)[C@H]21 (stereo partly drawn) [Example 196]	39	2.53	–
CCN(CC)CC(=O)O[C@H]1C[C@]2(C)[C@@H](C(C)=O)CC[C@H]2[C@@H]2CC[C@H]3C[C@H](O)CC[C@]3(C)[C@H]21 [Example 152]	–	3.6	Dissolved aminoester [1, 5]: 55.95 mg
CCCN(CCC)CC(=O)O[C@H]1C[C@]2(C)[C@@H](C(C)=O)CC[C@H]2[C@@H]2CC[C@H]3C[C@H](O)CC[C@@H]3[C@H]21 [Example 227 citrate salt]	–	–	concentration of aqueous solution of the citrate ([1]; citric acid monohydrate in water, filtered solution): 10000 µg/mL; pH ([2]; aqueous solution of the citrate, filtered, 9.5-10 mg/ml): 3.0
CC(=O)C1CCC2C3CCC4CC(O)C(C)CC4(C)C3C(OC(=O)CN3CCC(C)CC3)CC12C (stereo not drawn) [Example 175]	95	2.96	–
CC(=O)C1CCC2C3CCC4CC(O)CCC4(C)C3C(OC(=O)CNC(C)CC(C)C)CC12C (stereo not drawn) [Example 162]	86	3.0	–
CCCCN(C)CC(=O)O[C@H]1C[C@]2(C)[C@@H](C(C)=O)CC[C@H]2[C@@H]2CC[C@H]3C[C@H](O)[C@@H](OCC)C[C@]3(C)[C@H]21 [Example 121]	–	3.65	Dissolved aminoester [1, 6]: 120 mg
CCN(CC)CC(=O)O[C@H]1C[C@]2(C)[C@@H](C(C)=O)CC[C@H]2[C@@H]2CC[C@H]3C[C@H](O)[C@@H](Cl)C[C@]3(C)[C@H]21 [Example 202]	–	3.65	Dissolved aminoester [1, 5]: 120.5 mg
CC(=O)[C@H]1CC[C@H]2[C@@H]3CC[C@H]4C[C@H](O)CC[C@]4(C)[C@H]3[C@@H](OC(=O)CN(C)Cc3ccccc3)C[C@]12C [Example 119]	73	2.7	–
CC(=O)[C@H]1CC[C@H]2[C@@H]3CC[C@H]4C[C@H](O)CC[C@]4(C)[C@H]3[C@@H](OC(=O)CNC3CC3)C[C@]12C [Example 145]	–	2.93	Dissolved aminoester [1, 7]: 93 mg
CCCCNCC(=O)O[C@H]1C[C@]2(C)[C@@H](C(C)=O)CC[C@H]2[C@@H]2CC[C@H]3C[C@H](O)CC[C@]3(C)[C@H]21 [Example 136]	–	3.60	Dissolved aminoester [1, 7]: 83.5 mg
CCCN(CCC)CC(=O)O[C@H]1C[C@]2(C)[C@@H](C(=O)COC(C)=O)CC[C@H]2[C@@H]2CC[C@H]3C[C@H](O)CC[C@]3(C)[C@H]21 [Example 209]	–	3.2	Dissolved aminoester [1, 7]: 75 mg
CCCN(CCC)CC(=O)O[C@H]1C[C@]2(C)[C@@H](C(C)=O)CC[C@H]2[C@@H]2CC[C@H]3C[C@H](O)[C@@H](OCC)C[C@]3(C)[C@H]21 [Example 120]	–	3.5	Dissolved aminoester [1, 5]: 87 mg
CCCN(CCC)CC(=O)O[C@H]1C[C@]2(C)[C@@H](C(C)=O)CC[C@H]2[C@@H]2CC[C@H]3C[C@H](O)CC[C@]3(C)[C@H]21 [Example 213]	–	3.8	Dissolved aminoester [1, 5]: 119 mg
CCN(CC(=O)O[C@H]1C[C@]2(C)[C@@H](C(C)=O)CC[C@H]2[C@@H]2CC[C@H]3C[C@H](O)CC[C@]3(C)[C@H]21)CC(C)C [Example 195]	59	2.98	–
CC(=O)[C@H]1CC[C@H]2[C@@H]3CC[C@H]4C[C@H](O)CC[C@]4(C)[C@H]3[C@@H](OC(=O)CNC3CCCCC3)C[C@]12C [Example 138]	–	3.10	Dissolved aminoester [1, 6]: 100 mg

Reference: US4192871A, “Chemical compounds” (Glaxo Laboratories Limited, priority 1976, dated 1980)
